The compounds below were run on test plant species (assay: Post-emergent herbicidal activity test (greenhouse, foliar spray, visual growth reduction)). Settings: post-emergence, 336 h, ALOMY: blackgrass (Alopecurus myosuroides), 140 g ai/ha, 14 days after application, read-out: Visual Growth Reduction (%) 14 Days After Application, ALOMY.
Type: in vivo
Method: Post-emergent Test: Seeds or nutlets of the desired test plant species were planted in Sun Gro Metro-Mix® 360 planting mixture, which typically has a pH of 6.0 to 6.8 and an organic matter content of about 30 percent, in plastic pots with a surface area of 64 square centimeters. In some aspects, to ensure good germination and healthy plants, a fungicide treatment and/or other chemical or physical treatment was applied. The plants were grown for 7-21 d in a greenhouse with an approximate 15 h photoperiod which was maintained at 23-29° C. during the day and 22-28° C. during the night. Nutrients and water were added on a regular basis and supplemental lighting was provided with overhead metal halide 1000-Watt lamps as necessary. Plants were used for testing when they reached the first or second true leaf stage. A weighed amount, determined by the highest rate to be tested, of each test compound was placed in a 25 mL glass vial and was dissolved in 4 mL of a 97:3 v/v mixture of acetone and DMSO to obtain concentrated stock solutions. […] The concentrated stock solutions obtained were diluted with 20 mL of an aqueous mixture containing acetone, water, isopropyl alcohol, DMSO, […] crop oil concentrate, and X-77 surfactant in a 48.5:39:10:1.5:1.0:0.02 v/v ratio to obtain spray solutions containing the application rate. Compound requirements are based upon a 12 mL application volume at a rate of 187 liters per hectare (L/ha). Formulated compounds were applied to the plant material with an overhead Mandel track sprayer equipped with […] nozzles calibrated to deliver 187 L/ha over an application area of 0.64 square meters at a spray height of 18 inches (43 cm) above the average plant canopy height. Control plants were sprayed in the same manner with the solvent blank. The treated plants and control plants were placed in a greenhouse as described above and watered by subirrigation to prevent wash-off of the test compounds. After 14 d, the condition of the test plants as compared with that of the nontreated and control plants was determined visually and scored on a scale of 0 to 100 percent where 0 corresponds to no injury and 100 corresponds to complete control. In the reporting of the results, Table A: Percent Growth Reduction Conversion Table was used.
Compound `CC(F)(F)c1ccc(-c2ccc(Cl)c(C(=O)O)n2)c(Cl)c1` [F111, 3-Chloro-6-(2-chloro-4-(1,1-difluoroethyl)phenyl) picolinic acid] has a pest or weed control at 140 g/ha of 60 to 74%.
For `COC(=O)c1nc(-c2cc(Br)c(C(F)(F)F)cc2Cl)c(F)cc1Cl` [F152, Methyl 6-(5-bromo-2-chloro-4-(trifluoromethyl)phenyl)-3-chloro-5-fluoropicolinate], the pest or weed control at 140 g/ha was 0 to 29%.

Same assay, conditions: post-emergence, 336 h, AMARE: redroot pigweed (Amaranthus retroflexus), 140 g ai/ha, 14 days after application, read-out: Visual Growth Reduction (%) 14 Days After Application, AMARE
`CC(F)(F)c1ccc(-c2ccc(Cl)c(C(=O)O)n2)c(Cl)c1` [F111, 3-Chloro-6-(2-chloro-4-(1,1-difluoroethyl)phenyl) picolinic acid] gave a pest or weed control at 140 g/ha of 95 to 100%.
In the case of `COC(=O)c1nc(-c2cc(Br)c(C(F)(F)F)cc2Cl)c(F)cc1Cl` [F152, Methyl 6-(5-bromo-2-chloro-4-(trifluoromethyl)phenyl)-3-chloro-5-fluoropicolinate], the pest or weed control at 140 g/ha is reported as 95 to 100%.

Same assay, conditions: post-emergence, 336 h, AVEFA: wild oat (Avena fatua), 140 g ai/ha, 14 days after application, read-out: Visual Growth Reduction (%) 14 Days After Application, AVEFA
Work on `CC(F)(F)c1ccc(-c2ccc(Cl)c(C(=O)O)n2)c(Cl)c1` [F111, 3-Chloro-6-(2-chloro-4-(1,1-difluoroethyl)phenyl) picolinic acid] yielded a pest or weed control at 140 g/ha of 60 to 74%.
`COC(=O)c1nc(-c2cc(Br)c(C(F)(F)F)cc2Cl)c(F)cc1Cl` [F152, Methyl 6-(5-bromo-2-chloro-4-(trifluoromethyl)phenyl)-3-chloro-5-fluoropicolinate] was tested, and the pest or weed control at 140 g/ha was 0 to 29%.

Same assay, conditions: post-emergence, 336 h, CHEAL: lambsquarters (Chenopodium album), 140 g ai/ha, 14 days after application, read-out: Visual Growth Reduction (%) 14 Days After Application, CHEAL
Compound `CC(F)(F)c1ccc(-c2ccc(Cl)c(C(=O)O)n2)c(Cl)c1` [F111, 3-Chloro-6-(2-chloro-4-(1,1-difluoroethyl)phenyl) picolinic acid] has a pest or weed control at 140 g/ha of 95 to 100%.
`COC(=O)c1nc(-c2cc(Br)c(C(F)(F)F)cc2Cl)c(F)cc1Cl` [F152, Methyl 6-(5-bromo-2-chloro-4-(trifluoromethyl)phenyl)-3-chloro-5-fluoropicolinate] was tested, and the pest or weed control at 140 g/ha was 95 to 100%.

Same assay, conditions: post-emergence, 336 h, CIRAR: canada thistle (Cirsium arvense), 140 g ai/ha, 14 days after application, read-out: Visual Growth Reduction (%) 14 Days After Application, CIRAR
With `CC(F)(F)c1ccc(-c2ccc(Cl)c(C(=O)O)n2)c(Cl)c1` [F111, 3-Chloro-6-(2-chloro-4-(1,1-difluoroethyl)phenyl) picolinic acid] the pest or weed control at 140 g/ha was 95 to 100%.
`COC(=O)c1nc(-c2cc(Br)c(C(F)(F)F)cc2Cl)c(F)cc1Cl` [F152, Methyl 6-(5-bromo-2-chloro-4-(trifluoromethyl)phenyl)-3-chloro-5-fluoropicolinate] showed a pest or weed control at 140 g/ha of 45 to 59%.

Same assay, conditions: post-emergence, 336 h, CYPES: yellow nutsedge (Cyperus esculentus), 140 g ai/ha, 14 days after application, read-out: Visual Growth Reduction (%) 14 Days After Application, CYPES
For `CC(F)(F)c1ccc(-c2ccc(Cl)c(C(=O)O)n2)c(Cl)c1` [F111, 3-Chloro-6-(2-chloro-4-(1,1-difluoroethyl)phenyl) picolinic acid], the pest or weed control at 140 g/ha was 0 to 29%.
`COC(=O)c1nc(-c2cc(Br)c(C(F)(F)F)cc2Cl)c(F)cc1Cl` [F152, Methyl 6-(5-bromo-2-chloro-4-(trifluoromethyl)phenyl)-3-chloro-5-fluoropicolinate] was tested, and the pest or weed control at 140 g/ha was 0 to 29%.

Same assay, conditions: post-emergence, 336 h, DIGSA: crabgrass (Digitaria sanguinalis), 140 g ai/ha, 14 days after application, read-out: Visual Growth Reduction (%) 14 Days After Application, DIGSA
Compound `CC(F)(F)c1ccc(-c2ccc(Cl)c(C(=O)O)n2)c(Cl)c1` [F111, 3-Chloro-6-(2-chloro-4-(1,1-difluoroethyl)phenyl) picolinic acid] has a pest or weed control at 140 g/ha of 85 to 94%.
With `COC(=O)c1nc(-c2cc(Br)c(C(F)(F)F)cc2Cl)c(F)cc1Cl` [F152, Methyl 6-(5-bromo-2-chloro-4-(trifluoromethyl)phenyl)-3-chloro-5-fluoropicolinate] the pest or weed control at 140 g/ha was 60 to 74%.

Same assay, conditions: post-emergence, 336 h, ECHCG: barnyardgrass (Echinochloa crus-galli), 140 g ai/ha, 14 days after application, read-out: Visual Growth Reduction (%) 14 Days After Application, ECHCG
Work on `CC(F)(F)c1ccc(-c2ccc(Cl)c(C(=O)O)n2)c(Cl)c1` [F111, 3-Chloro-6-(2-chloro-4-(1,1-difluoroethyl)phenyl) picolinic acid] yielded a pest or weed control at 140 g/ha of 95 to 100%.
`COC(=O)c1nc(-c2cc(Br)c(C(F)(F)F)cc2Cl)c(F)cc1Cl` [F152, Methyl 6-(5-bromo-2-chloro-4-(trifluoromethyl)phenyl)-3-chloro-5-fluoropicolinate] showed a pest or weed control at 140 g/ha of 0 to 29%.

Same assay, conditions: post-emergence, 336 h, IPOHE: ivy-leaf morning glory (Ipomoea hederacea), 140 g ai/ha, 14 days after application, read-out: Visual Growth Reduction (%) 14 Days After Application, IPOHE
Work on `CC(F)(F)c1ccc(-c2ccc(Cl)c(C(=O)O)n2)c(Cl)c1` [F111, 3-Chloro-6-(2-chloro-4-(1,1-difluoroethyl)phenyl) picolinic acid] yielded a pest or weed control at 140 g/ha of 95 to 100%.
Work on `COC(=O)c1nc(-c2cc(Br)c(C(F)(F)F)cc2Cl)c(F)cc1Cl` [F152, Methyl 6-(5-bromo-2-chloro-4-(trifluoromethyl)phenyl)-3-chloro-5-fluoropicolinate] yielded a pest or weed control at 140 g/ha of 95 to 100%.

Same assay, conditions: post-emergence, 336 h, KCHSC: kochia (Bassia scoparia), 140 g ai/ha, 14 days after application, read-out: Visual Growth Reduction (%) 14 Days After Application, KCHSC
For `CC(F)(F)c1ccc(-c2ccc(Cl)c(C(=O)O)n2)c(Cl)c1` [F111, 3-Chloro-6-(2-chloro-4-(1,1-difluoroethyl)phenyl) picolinic acid], the pest or weed control at 140 g/ha was 95 to 100%.
For `COC(=O)c1nc(-c2cc(Br)c(C(F)(F)F)cc2Cl)c(F)cc1Cl` [F152, Methyl 6-(5-bromo-2-chloro-4-(trifluoromethyl)phenyl)-3-chloro-5-fluoropicolinate], the pest or weed control at 140 g/ha was 85 to 94%.

Same assay, conditions: post-emergence, 336 h, ORYSA: rice (Oryza sativa), 140 g ai/ha, 14 days after application, read-out: Visual Growth Reduction (%) 14 Days After Application, ORYSA
Work on `CC(F)(F)c1ccc(-c2ccc(Cl)c(C(=O)O)n2)c(Cl)c1` [F111, 3-Chloro-6-(2-chloro-4-(1,1-difluoroethyl)phenyl) picolinic acid] yielded a pest or weed control at 140 g/ha of 0 to 29%.
For `COC(=O)c1nc(-c2cc(Br)c(C(F)(F)F)cc2Cl)c(F)cc1Cl` [F152, Methyl 6-(5-bromo-2-chloro-4-(trifluoromethyl)phenyl)-3-chloro-5-fluoropicolinate], the pest or weed control at 140 g/ha was 0 to 29%.

Same assay, conditions: post-emergence, 336 h, SETFA: giant foxtail (Setaria faberi), 140 g ai/ha, 14 days after application, read-out: Visual Growth Reduction (%) 14 Days After Application, SETFA
`CC(F)(F)c1ccc(-c2ccc(Cl)c(C(=O)O)n2)c(Cl)c1` [F111, 3-Chloro-6-(2-chloro-4-(1,1-difluoroethyl)phenyl) picolinic acid] gave a pest or weed control at 140 g/ha of 75 to 84%.
Compound `COC(=O)c1nc(-c2cc(Br)c(C(F)(F)F)cc2Cl)c(F)cc1Cl` [F152, Methyl 6-(5-bromo-2-chloro-4-(trifluoromethyl)phenyl)-3-chloro-5-fluoropicolinate] has a pest or weed control at 140 g/ha of 0 to 29%.

Same assay, conditions: post-emergence, 336 h, SORVU: grain sorghum (Sorghum vulgare), 140 g ai/ha, 14 days after application, read-out: Visual Growth Reduction (%) 14 Days After Application, SORVU
Compound `CC(F)(F)c1ccc(-c2ccc(Cl)c(C(=O)O)n2)c(Cl)c1` [F111, 3-Chloro-6-(2-chloro-4-(1,1-difluoroethyl)phenyl) picolinic acid] has a pest or weed control at 140 g/ha of 85 to 94%.
With `COC(=O)c1nc(-c2cc(Br)c(C(F)(F)F)cc2Cl)c(F)cc1Cl` [F152, Methyl 6-(5-bromo-2-chloro-4-(trifluoromethyl)phenyl)-3-chloro-5-fluoropicolinate] the pest or weed control at 140 g/ha was 95 to 100%.

Same assay, conditions: post-emergence, 336 h, STEME: common chickweed (Stellaria media), 140 g ai/ha, 14 days after application, read-out: Visual Growth Reduction (%) 14 Days After Application, STEME
With `COC(=O)c1nc(-c2cc(Br)c(C(F)(F)F)cc2Cl)c(F)cc1Cl` [F152, Methyl 6-(5-bromo-2-chloro-4-(trifluoromethyl)phenyl)-3-chloro-5-fluoropicolinate] the pest or weed control at 140 g/ha was 0 to 29%.

Same assay, conditions: post-emergence, 336 h, TRZAS: wheat, spring (Triticum aestivum), 140 g ai/ha, 14 days after application, read-out: Visual Growth Reduction (%) 14 Days After Application, TRZAS
With `CC(F)(F)c1ccc(-c2ccc(Cl)c(C(=O)O)n2)c(Cl)c1` [F111, 3-Chloro-6-(2-chloro-4-(1,1-difluoroethyl)phenyl) picolinic acid] the pest or weed control at 140 g/ha was 75 to 84%.
Work on `COC(=O)c1nc(-c2cc(Br)c(C(F)(F)F)cc2Cl)c(F)cc1Cl` [F152, Methyl 6-(5-bromo-2-chloro-4-(trifluoromethyl)phenyl)-3-chloro-5-fluoropicolinate] yielded a pest or weed control at 140 g/ha of 0 to 29%.

Reference: US20230017045A1, “PYRIDINE AND PYRIMIDINE CARBOXYLATE HERBICIDES AND METHODS OF USE THEREOF” (Dow AgroSciences LLC, priority 2017, published 2023)
